In publication PMC5406667, “Antiretroviral Activity Of a Novel Pyrimidyl-Di(Diazaspiroalkane) Derivative” (Acta Naturae, 2017):
“And” between values parts separate entries of the source, which are not always exact repeats. Equal values may be shown once. Read-outs that look alike come from different tables or passages of the source.

How the values were obtained:
[1] = test system: HIV-1 DPS; details: MT-4 cells
Description: (§1) Our studies were carried out at the National Cancer Institute (National Cancer Institute, Bethesda, Maryland, USA). Antiviral activity was assessed using the XTT test with various concentrations of the compound and incubation of cells (CEM-SS, MT-2, MT-4) in the presence of serial dilutions of dispiropiperazine 2 (dissolved in dimethyl sulphoxide, DMSO) for 6 days at a temperature of 37°C and humidified atmosphere with 5% CO2, followed by addition of XTT reagents. The method is based on a spectrometric measurement of the level of formazan transformed by living cells from a water-soluble tetrazolium salt, XTT.
(§2) The following HIV strains were used: the reference HIV-1 IIIB strain; the AZT-sensitive HIV-1 6S, HIV- 1 RF strains; the drug-resistant HIV-1 N119 strains (resistant to nevirapine, Y181C mutation), HIV-1 DPS (resistant to diphenyl sulfone, Y181C mutation), and HIV-1 A-17 (resistant to nevirapine, K103N and Y181C mutations). We also used the HIV-2 ROD strain and simian immunodeficiency virus SIV MAC 251.

[2] = test system: HIV-1 RF; details: CEM-SS cells
Description: as §1, §2

[3] = test system: HIV-1 6S
Description: as §1, §2

[4] = test system: HIV-1 A-17; details: for IC50: HIV-1 A-17 (resistant to nevirapine, K103N and Y181C), 6 days, XTT
Description: as §1, §2

[5] = test system: HIV-2 ROD; details: CEM-SS cells
Description: as §1, §2

[6] = test system: HIV-1 IIIB; details: MT-4 cells
Description: as §1, §2

[7] = test system: HIV-1 N119
Description: as §1, §2

[8] = test system: SIV MAC 251; details: SIV MAC 251, MT-4 cells
Description: as §1, §2

[9] = test system: MT-4; details: read-out: CC50 (cytotoxic concentration), MT-4 cells
Description: as §1

[10] = test system: CEM-SS; details: read-out: CC50 (cytotoxic concentration), CEM-SS cells
Description: as §1

[11] = test system: MT-2; details: read-out: CC50 (cytotoxic concentration), MT-2 cells
Description: as §1

[12] = design: method as in PMID 15341064; details: degradation accompanied by the formation of nitric oxide; cited from earlier work
[13] = test system: cellular HSPG; design: method as in earlier work; details: prevents virus binding; cited from earlier work
[14] = test system: herpes viruses; details: cited from earlier work

3,3’-(5-nitropyrimidine-4,6-diyl)bis-3,12-diaza-6,9-diazoniadispiro[ 5.2.5.2]hexadecane tetrachloride dihydrochloride [Compound 2]
IC50 ([1]; HIV-1 DPS (resistant to diphenyl sulfone, Y181C), 6 days, XTT): 1.17 µM and 1.2 µM
TI (CC50/IC50), therapeutic index ([1]; HIV-1 DPS): 170.0
IC50 ([2]; HIV-1 RF (AZT-sensitive), 6 days, XTT): 150 µM
TI (CC50/IC50), therapeutic index ([2]; HIV-1 RF): 1.3
IC50 [3]: 1.37 µM and 1.4 µM
TI (CC50/IC50), therapeutic index ([3]; HIV-1 6S, MT-2 cells): 71.4
IC50 ([4]; MT-2 cells): 4.7 µM
IC50 ([4]; MT-4 cells): 33.7 µM
TI (CC50/IC50), therapeutic index ([4]; HIV-1 A-17, MT-2 cells): 16.7
TI (CC50/IC50), therapeutic index ([4]; HIV-1 A-17, MT-4 cells): 5.9
TI (CC50/IC50), therapeutic index [5]: 15.0
IC50 ([5]; 6 days, XTT): 13.3 µM
IC50 ([6]; HIV-1 IIIB (reference strain), 6 days, XTT): 5.7 µM
TI (CC50/IC50), therapeutic index ([6]; HIV-1 IIIB): 35.0
IC50 ([7]; HIV-1 N119 (resistant to nevirapine, Y181C), MT-4 cells, 6 days, XTT): 31.7 µM
TI (CC50/IC50), therapeutic index ([7]; HIV-1 N119, MT-4 cells): 6.3
TI (CC50/IC50), therapeutic index [8]: 31.5
IC50 ([8]; 6 days, XTT): 6.3 µM
CC50 ([9]; HIV-1 A-17 experiment): 200 µM
CC50 ([9]; HIV-1 DPS experiment): 200 µM
CC50 ([9]; HIV-1 IIIB experiment): 200 µM
CC50 ([9]; HIV-1 N119 experiment): 200 µM
CC50 ([9]; SIV MAC 251 experiment): 200 µM
CC50 ([10]; HIV-1 RF experiment): 197 µM
CC50 ([10]; HIV-2 ROD experiment): 200 µM
CC50 ([11]; HIV-1 6S experiment): 98.2 µM
CC50 ([11]; HIV-1 A-17 experiment): 79.1 µM

[O-][n+]1onc2ncnc(N3CC[N+]4(CC3)CC[N+]3(CCN(c5ncnc6no[n+]([O-])c56)CC3)CC4)c21 [Compound 1, N,N’-(bis-1-oxido[1,2,5]oxadiazolo [3,4d]-nitropyrimidine-7-il)-3,12-diaza-6,9-diazonia(5,2,5,2)dispirohexane dichloride]
Metabolic stability [12]: metabolic instability
Binding to cellular HSPG [13]: effective reversible binding to cellular HSPG
Inhibition of replication in herpes viruses [14]: inhibits replication in herpes viruses
